Assay results taken from article PMC4255673 (Analytical Chemistry, 2014).
“Also recorded” adds a separate entry of the source. Bridges are numbered along the chain shown (N, C = ends).

Columns and labels:
KDM4C [1] = test: HDX-MS of KDM4C ± peptide; assay type: binding
KDM4C [2] = conditions: cited from earlier work; for inhibition constants: TR-FRET demethylase assay; for apparent increase in activity of second generation peptides over initial leads: vs initial peptide leads
KDM4C [3] = conditions: cell-based assay; cited from earlier work
KDM4C [4] = test: In vitro TR-FRET demethylase assay / KDM4C inhibition; assay type: biochemical; conditions: nonbinding control peptide; assay not described

Row | Substance | isotopic distribution / EX1 kinetics in site D (331–344) (KDM4C [1]; KDM4C 331–344, HDX time course, bimodal fit with HX-Express, peptide 160 μM) | HDX of helix 359–370 (KDM4C [1]; KDM4C 359–370, Figure S1 / data not shown) | inhibition constants (KDM4C [2]) | apparent increase in activity of second generation peptides over initial leads (KDM4C [2]) [fold] | inhibitory activity in cells (KDM4C [3]) | KDM4C inhibition (control peptide) (KDM4C [4])
1 | H-ACYTRNMNQC-NH2 (also: sidechain bridge or staple (positions not given here)) [Peptide 2] | confirmed the occurrence of EX1 kinetics | the perturbation in HDX along site 359–370 was only significant after 10 min; also recorded: Helix 359–370 shows reduced HDX (significant only after 10 min; see Figure S1, Supporting Information) but no EX1 exchange kinetics | in the high μM range | 10 | none of the peptides showed any inhibitory activity | 
2 | H-ACKWMDDGYCGGG-NH2 (disulfide 2-10 (inferred)) [Peptide 4] |  |  |  |  |  | noninhibitory
3 | H-CKWMADGYC-NH2 (disulfide 1-9 (inferred)) [Peptide 3] |  |  | in the high μM range | 10 | none of the peptides showed any inhibitory activity | 
